Measured values reported in patent US20260216134A1, “CHARGED PI-CONJUGATED MOLECULES FOR THE TREATMENT OF MICROBIAL INFECTIONS” (priority 2023, published 2026).
Read-outs that look alike come from different tables or passages of the source.

Legend:
[1] = test system: A375 cancer cells (melanoma); assay: Crystal violet cytotoxicity test in A375 cells without light activation; format: cell-based, human
Method: (§1) The inhibitory concentration of charged pi-conjugated compounds needed to inhibit the cell growth by 50% (toxicity IC50).
(§2) Most of the charged pi-conjugated compounds are aminocyanines which are functionalized with alkyl amine group. The charged pi-conjugated compounds were added to cell cultures of A375 cancer cells (human melanoma) and their cytotoxicity was quantified by the crystal violet test and/or clonogenic assays for cell viability. […] The longer the exposure the most cytotoxic the charged pi-conjugated compounds are towards A375 cells. […] The same behavior is observed: the longer the exposure, the more cytotoxic. All molecules presented here are aminocyanines except GL-261-2 which is a carboxyl-cyanine. […] This was the first time a therapeutic window of concentration that can be tuned to selectively kill cancer and/or protect cells was suspected. In finding this therapeutic window concentration and time of exposure are important variables that should be fine tuned.
(§3) Based on the finding described above, a larger set of charged pi-conjugated compounds was evaluated for cytotoxicity against A375 cancer cells as shown in FIG. 25 and FIG. 26.
(§4) The IC50 is the concentration needed to inhibit the cell viability by 50%. These molecules in FIG. 25 and FIG. 26 were evaluated by crystal violet assay and using 2 days of exposure.

[2] = test system: A375 cancer cells (melanoma); assay: Clonogenic assay cytotoxicity in A375 cells without light; format: cell-based, human
Method: (§5) FIGS. 28A-28B provide a summary of the evidence of the cytotoxicity of charged pi-conjugated compounds without light. Toxicity was measured using clonogenic assay with 7 hours of incubation (contact time between molecules and A375 cells) and 7 days for colony formation. (FIG. 28A) The lethal concentration of the cyanine molecules to kill 50% of the A375 cells (Tox LC50) without light activation. (FIG. 28B) Chemical structure of exemplary charged pi-conjugated compounds. On average, 300 cells equal to 300 colonies were seeded and analyzed for each data point.
(§6) Both properties were measured using clonogenic assay with 7 hours of incubation (contact time between molecules and A375 cells) and 7 days for colony formation. 300 cells were seeded and analyzed for each data point.
(§7) More cytotoxicity tests were conducted in some additional molecules and using clonogenic assay for cell viability (FIG. 28). A375 cells were exposed to charged pi-conjugated compounds for 7 hours, in contrast to the previously presented assays which were conducted with crystal violet assay and 2 days of exposure. The data points showing the cytotoxicity quantification for each individual molecule are presented in FIG. 29, with resulting IC50 values summarized in Table 4.

[3] = Crystal violet cytotoxicity test in A375 cells without light activation; format: cell-based, human; settings: human
Method: as §1, §2, §3, §4

[4] = Clonogenic assay cytotoxicity in A375 cells without light; format: cell-based, human; settings: human
Method: as §5, §6, §7

[5] = test system: Gram-positive strains; assay: MIC / MIC50 by broth microdilution in panel of Gram-positive strains; format: cell-based; settings: MIC50 over all Gram-positive strains tested (Table 2)
Method: Antibacterial activity was assessed by determining the minimal inhibitory concentration (MIC) and the minimal bactericidal concentrations (MBC) and by monitoring time-dependent bacterial killing of exponentially growing cells. Bacterial cell suspensions (OD600≈0.02 in cation-adjusted Muller-Hinton Broth) were treated with increasing concentrations of the different molecules. The minimal inhibitory concentration (MIC) was defined as the minimal concentration of the molecule resulting in complete bacterial growth arrest. The minimal bactericidal concentration (MBC) was defined as the lowest concentration of the molecule that killed 99.9% of the inoculum. A molecule was determined to be bactericidal if the ratio of the MBC to the MIC was less than 4 to 6. […] In M. smegmatis, the antibacterial activity of charged pi-conjugated compounds was generally lower.
The MIC values for all Gram-positive strains tested (Table 2) were used to calculate the MIC50, i.e., the minimum inhibitory concentration needed to inhibit the growth of 50% of the tested isolates (FIG. 5A). […] When the average MIC50 values were evaluated, the most susceptible bacterial genera were Streptococcus sp., followed by Staphylococcus sp. In contrast, Propionibacterium sp. had the highest average MIC50 (FIG. 5B).
The broth microdilution method was used to determine the MIC of charged pi-conjugated compounds according to the CLSI guidelines. Charged pi-conjugated compound stock solutions (16 mM) were prepared in dimethyl sulfoxide (DMSO). Serial twofold dilutions of the charged pi-conjugated compounds were freshly prepared using the appropriate liquid media (Table 2), and 100 μL of each dilution was added to the appropriate wells of 96-well microtiter plates. The bacterial inoculum was further diluted in liquid media, and 100 μL was added to each well, resulting in a final cell density of ≈5×10^5 CFU mL^−1. […] A molecule was determined to be bactericidal if the ratio of the MBC to the MIC was less than 4 to 6. […]

[6] = test system: S. aureus; assay: Time-kill of combinations at 0.5×MIC; format: cell-based, Staphylococcus aureus; settings: 0.5×MIC of individual agent, after 12 h of treatment
[7] = crystal violet assay, 2 days of exposure, without light activation, read-out: IC50 (μM), cytotoxicity to A375 cancer cells
[8] = clonogenic assay, 7 hours of exposure, 7 days colony formation, without light, read-out: IC50 (μM), cytotoxicity to A375 cancer cells

## CN1/C(=C/C=C2C=C(/C=C/C3=[N+](C)c4ccc5ccccc5c4C3(C)C)CCC/2)C(C)(C)c2c1ccc1ccccc21 [BL-141-1, 1,1,3-trimethyl-2-((E)-2-((E)-3-((E)-2-(1,1,3-trimethyl-1,3-dihydro-2H-benzo[e]indol-2-ylidene)ethylidene)cyclohex-1-en-1-yl)vinyl)-1H-benzo[e]indol-3-ium]
[1]; [7]
  IC50: 0.125 µM
[2]; [8]
  IC50: 0.14 µM

## CN(C)CCCCCCN1/C(=C/C=C2C=C(/C=C/C3=[N+](CCCCCCN(C)C)c4ccc5ccccc5c4C3(C)C)CCC/2)C(C)(C)c2c1ccc1ccccc21.[Br-] [BL-142, 3-(6-(dimethylamino)hexyl)-2-((E)-2-((E)-3-((E)-2-(3-(6-(dimethylamino)hexyl)-1,1-dimethyl-1,3-dihydro-2H-benzo[e]indol-2-ylidene)ethylidene)cyclohex-1-en-1-yl)vinyl)-1,1-dimethyl-1H-benzo[e]indol-3-ium]
[3]
  IC50 at 2 days: 2.5 µM
[1]
  cytotoxicity at long exposure: showed cytotoxicity

## CN1/C(=C/C=C2C=C(/C=C/C3=[N+](CCCCCC(=O)O)c4ccc5ccccc5c4C3(C)C)CCC/2)C(C)(C)c2c1ccc1ccccc21 [BL-242, 3-(5-carboxypentyl)-1,1-dimethyl-2-((E)-2-((E)-3-((E)-2-(1,1,3-trimethyl-1,3-dihydro-2H-benzo[e]indol-2-ylidene)ethylidene)cyclohex-1-en-1-yl)vinyl)-1H-benzo[e]indol-3-ium]
[4]
  IC50 at 7 h: 2 µM

## COC(=O)CCCCCN1/C(=C/C=C2C=C(/C=C/C3=[N+](CCCCCC(=O)OC)c4ccc5ccccc5c4C3(C)C)CCC/2)C(C)(C)c2c1ccc1ccccc21 [BL-246-1, 3-(6-methoxy-6-oxohexyl)-2-((E)-2-((E)-3-((E)-2-(3-(6-methoxy-6-oxohexyl)-1,1-dimethyl-1,3-dihydro-2H-benzo[e]indol-2-ylidene)ethylidene)cyclohex-1-en-1-yl)vinyl)-1,1-dimethyl-1H-benzo[e]indol-3-ium]
[4]
  IC50 at 7 h: 0.6 µM

## C[N+]1=C(C=CC=CC=C2N(CCCCCC(=O)NCCCCCCN)c3ccccc3C2(C)C)C(C)(C)c2ccccc21 [Cy5-amine]
[1]
  IC50: 8 µM

## C[N+]1=C(/C=C/C=C/C=C2/N(CCCCCC(=O)NCCCCCCN)c3ccc4ccccc4c3C2(C)C)C(C)(C)c2c1ccc1ccccc21.Cl.[Cl-] [Cy5.5-amine]
[1]
  IC50: 2 µM
  cytotoxicity at short exposure: safe and showed low cytotoxicity
[5]
  antibacterial activity according to MIC50: strongest antibacterial activity

## C[N+]1=C(/C=C/C2=CC(=C/C=C3/N(CCCCCC(=O)NCCCCCCN)c4ccccc4C3(C)C)/CCC2)C(C)(C)c2ccccc21 [Cy7-amine]
[1]
  IC50: 2 µM
[2]
  IC50: 0.75 µM

## CN1/C(=C/C=C/C=C/C=C/C2=[N+](C)c3ccc4ccccc4c3C2(C)C)C(C)(C)c2c1ccc1ccccc21 [GL-176]
[1]
  IC50: 0.25 µM

## CN1/C(=C/C=C/C=C/C=C/C2=[N+](CCCCCC(=O)O)c3ccc4ccccc4c3C2(C)C)C(C)(C)c2c1ccc1ccccc21 [GL-261-2]
[3]; [7]
  IC50 at 2 days: 2 µM
[1]; A375, exposure ~30-50 min
  cytotoxicity at short exposure: safe and showed low cytotoxicity
[1]; ~50 min exposure, 1-4 μM
  effect toward A375 cells at short exposure: protective effect
[4]; [8]
  IC50 at 7 h: 5 µM

## CN1/C(=C/C=C/C=C/C=C/C2=[N+](CCCCCCN)c3ccc4ccccc4c3C2(C)C)C(C)(C)c2c1ccc1ccccc21 [GL-286]
[3]; [7]
  IC50 at 2 days: 2.88 µM
[1]; 1 day incubation, concentrations below 1 μM
  cell viability at short incubation and low concentration: can increase the cell viability
[1]; A375, 1 day vs 2 days exposure
  cytotoxicity at long exposure: showed cytotoxicity
[4]; [8]
  IC50 at 7 h: 1 µM

## CN(C)CCCCCC[N+]1=C(/C=C/C=C/C=C/C=C2/N(C)c3ccc4ccccc4c3C2(C)C)C(C)(C)c2c1ccc1ccccc21 [GL-291-2]
[3]
  IC50 at 2 days: 1.5 µM
[1]
  cytotoxicity at long exposure: showed cytotoxicity

## COC(=O)C(/C=C/C=C1/N(C)c2ccc3ccccc3c2C1(C)C)=C(C)\C=C\C1=[N+](CCCCCCN(C)C)c2ccc3ccccc3c2C1(C)C [GL-297-2]
[3]
  IC50 at 2 days: 1 µM
[4]
  IC50 at 7 h: 0.45 µM

## CN(C)CC[N+]1=C(/C=C/C=C/C=C/C=C2/N(C)c3ccc4ccccc4c3C2(C)C)C(C)(C)c2c1ccc1ccccc21 [GL-308-2]
[3]
  IC50 at 2 days: 0.5 µM

## CN1/C(=C/C=C/C=C/C=C/C2=[N+](CCCCCC[N+](C)(C)C)c3ccc4ccccc4c3C2(C)C)C(C)(C)c2c1ccc1ccccc21 [GL-328-2]
[3]
  IC50 at 2 days: 7 µM

## CN(C)CC[N+]1=C(/C=C/C2=CC(=C/C=C3/N(C)c4ccc5ccccc5c4C3(C)C)/CC(C(C)(C)C)C2)C(C)(C)c2c1ccc1ccccc21 (stereo not shown) [GL-349-2]
[3]
  IC50 at 2 days: 0.3 µM

## CC(=O)NCCCCCC[N+]1=C(/C=C/C=C/C=C/C=C2/N(C)c3ccc4ccccc4c3C2(C)C)C(C)(C)c2c1ccc1ccccc21 [GL-362-2]
[4]
  IC50 at 7 h: 0.19 µM

## CCCCCCCCCC(=O)N[C@@H](Cc1c[nH]c2ccccc12)C(=O)N[C@H](CC(N)=O)C(=O)N[C@@H](CC(=O)O)C(=O)N[C@@H]1C(=O)NCC(=O)N[C@@H](CCCN)C(=O)N[C@@H](CC(=O)O)C(=O)N[C@H](C)C(=O)N[C@@H](CC(=O)O)C(=O)NCC(=O)N[C@H](CO)C(=O)N[C@@H]([C@H](C)CC(=O)O)C(=O)N[C@@H](CC(=O)c2ccccc2N)C(=O)O[C@@H]1C [daptomycin]
[6]
  maximum reduction in bacterial population size: ≈ 3 log10

## gramicidin
[6]
  maximum reduction in bacterial population size: ≈ 3 log10
